In patent US20050148073A1, “Induction of hepatocyte proliferation in vitro by inhibition of cell cycle inhibitors” (priority 2002, published 2005):

Legend:
primary rat hepatocytes [1] = test: Hepatocyte morphology / cell spreading (scanning electron micrographs); assay type: cell-based; details: 24 hours
From the text: PKA inhibition also had surprising effects on cell morphology. It has been proposed that malleable substrates such as collagen gel are unable to promote cell spreading because it lacks sufficient mechanical strength to resist contractile forces applied by the cell to its adhesion sites.

hepatocytes [2] = test: Dot blot of albumin secretion, 72 hour media samples; assay type: cell-based, rat
Experimental: FIG. 6. Dot blot of albumin secretion—72 hour media samples.
The observed enhanced cell number was accompanied by NO change in albumin secretion, which is a standard measure of differentiated function. […] It also compares it to a thin film of type I collagen on which hepatocytes may proliferate but also lose differentiated function. Inhibition of PKA has little effect on DNA synthesis, cell counts, or albumin secretion in hepatocytes cultured on film.

primary rat hepatocytes [3] = test: Albumin secretion by ELISA (differentiated function); assay type: cell-based; details: collagen gel; text: after 48 hours in culture; H89 3 μM
Experimental: FIG. 4. Effects of PKA inhibition on hepatocyte proliferation and differentiation. […] Albumin secretion was determined by ELISA.
(§1) Albumin is a protein synthesized and secreted by hepatocytes and this assay is routinely used as a marker of differentiated function. […] Urea production is also maintained on collagen gel in the presence of PKA inhibition (FIG. 4C).

hepatocytes [4] = test: Cell counts after pulsed PKA inhibition, Example 6 (hemocytometer, Coulter counter); assay type: cell-based, rat
Experimental: Coating: 60 mm plates were coated with film or 5× gel, as described above, with 4 replicates per condition. […] Culture: The cells were cultured as described above, changing media in all plates at 72 hrs, and again at 96 hrs (day 4). […] Harvest: Gel—media was removed from plates. Five mL collagenase (approx. 1 mg/ml) in PBS was added to plates and incubated for 20 minutes at 37° C. Three mL trypsin-EDTA was added directly to collagenase solution and incubated another 15 minutes at 37° C. Media was removed with a pipette and plate was washed several times with the media, before the media was collected into a 15 mL tube. Tubes were centrifuged at 1000 rpm for 10 minutes at 4° C. Supernatant was removed and pellets from each of the four replicates were resuspended in 1 mL fresh media. Tube was weighed for end volume and equalized to 1 ml later. Film—Media was removed from plates. Trypsin-EDTA was added to dishes (3 ml/dish) and dishes were incubated at 37° C. for 15 minutes. Procedure was repeated. Samples were snap frozen in ethanol at −70° C. before thawing and counting. Counting: Hemocytometer—100 μL sample was added to 900 μL trypan blue in PBS […]. Cells were counted. Repeated procedure seven times for eight total counts per sample. Coulter Counter—Added 250 μL sample to 20 mL PBS in small Coulter vessel. Counted with predetermined pre-sets, collecting 1 mL of 20 mL sample and recording result. Repeated procedure seven times for eight total counts per sample. It should be noted that the inventors also determined that a pulse of PKA inhibitor is preferable to a constant exposure to PKA. If the PKA inhibitor is left on for the entire culture period, there is no enhanced cell number, presumably due to the requirement of PKA in later stages of the cell cycle. Thus, the methodology differs slightly from our initial report in which we simply stated the inhibitor is added to the culture. In the present experiments, the inventors exposed the cells to the inhibitor on for the first 72 hours, removed it for the next 24 hours, and then added it back again.

p42/44 ERKs = test: Phosphorylation of p42/44 ERKs by Western blot; assay type: cell-based, rat; details: hepatocytes on collagen gel for 50 hr, with H89
Experimental: (§2) FIG. 2. Effects of PKA inhibition on morphology and cell cycle progression on collagen gel. (A) PKA activity was assessed in hepatocytes cultured on gel or film. In vitro kinase assay was performed; DPM=total ^32P-incorporation, minus counts from sample without substrate. […] [^3H]Thymidine incorporation was assessed from 48-96 hr. (C) Phosphorylation of p42/44 ERKs was determined in hepatocytes cultured on collagen gel for 50 hr by Western blot using a phospho-specific p42/44 antibody (NEB). […] EGF receptor (EGFr) was immunoprecipitated, followed by Western blot analysis of phospho-tyrosine (P-Tyr) or total EGFr.
To determine if ERK activation occurs on both collagen substrates (film and gel), phosphorylation of ERKs was measured using Western blot analysis and antibodies against the phosphorylated form of ERK 1/2 (New England Biolabs). […] Once plated onto collagen film, ERK phosphorylation persisted and increased slightly over the first 2 hours in culture, then gradually diminished out to 24 hours. A second peak of phosphorylation was observed by 48 hours, just prior to entry into S phase. Both peaks of phosphorylation correlated with increased ERK kinase activity as determined by in vitro kinase assays. In contrast, the initial phosphorylation subsides more rapidly in cells on collagen gel and the second peak of ERK phosphorylation was absent. […]

primary rat hepatocytes [5] = test: DNA synthesis, [3H]thymidine incorporation in hepatocytes on collagen film or gel; assay type: cell-based
Experimental: as §2
Once it was confirmed that PKA activity was higher in cells cultured on gel, PKA activity was modified to assess its role in cell cycle progression.
DNA Synthesis: DNA synthesis will be measured using [^3H]-thymidine incorporation in substrate-coated 96-well plates, as previously described (Hansen 1999). DPMs will be normalized to cell number assessed in parallel plates using the CyQuant Assay (Molecular Probes).
Hepatocyte Culture: Cells are obtained by collagenase perfusion of adult Lewis rat liver (Aiken 1990), followed by purification through a Percoll gradient (Sigma, St. Louis, Mo.). Hepatocytes will be plated (12,000 cells/cm^2) in serum-free William's medium E with defined additives including EGF (10 ng/ml, Collaborative Research, Bedford, Mass.) and insulin (20 mU/ml, Sigma) (Hansen 1994).

primary rat hepatocytes [6] = test: Urea production in hepatocytes on collagen gel; assay type: cell-based; details: with PKA inhibition (FIG. 4C: with or without H89)
Experimental: (§3) FIG. 4. Effects of PKA inhibition on hepatocyte proliferation and differentiation. […] Medium was replaced at 96 hr and collected for analysis at 120 hr. Albumin secretion was determined by ELISA.
as §1

primary rat hepatocytes [7] = test: Cell counting 96 hr after plating on collagen gel (hemocytometer); assay type: cell-based; details: H89 3 μM
Experimental: as §3
While growth on collagen films was also high, hepatocytes quickly become de-differentiated on collagen films.
Proliferation: Hepatocytes cultured on 35 mm dishes will be removed from plates using a combination of trypsin, collagenase, and DNAse at various times after plating. Cells are counted using a Coulter counter and hemocytometer. A cell count at 24 hour is also determined to assess the initial number of viable, attached cells. Plates are run in triplicate.

[8] = tested on: protein kinase inhibitory peptide, PKI

## Nc1ncnc2c1nc(Br)n2[C@@H]1O[C@@H]2COP(=O)(O)O[C@H]2[C@H]1O [8-Br-cAMP]
Primary rat hepatocytes [1]; collagen film
  cell spreading on collagen film: significantly inhibits cell spreading

## O=S(=O)(NCCNC/C=C/c1ccc(Br)cc1)c1cccc2cnccc12 [H89, N-[2-((p-bromocinnamyl)amino)ethyl]-5-isoquinolinesulfonamide]
Hepatocytes [2]; collagen film
  albumin secretion in hepatocytes cultured on film: little effect
Hepatocytes [2]; collagen gel cultures with or without H89, 72 hours
  albumin secretion (dot blot, not quantitated): NO change
Primary rat hepatocytes [3]
  albumin secretion compared to DMSO controls: not reduced
Hepatocytes [4]; collagen film
  cell counts in hepatocytes cultured on film: little effect
Hepatocytes [4]; type I collagen gel, eight days in culture, 3.3 μM H89 pulsed
  higher cell number with PKA inhibition: 15-20%
Hepatocytes [4]; type I collagen gel, eight days, 3.3 μM H89 pulsed, p-value=0.0004
  average increase in cell number, five experiments: 16%±3.3%
Hepatocytes [4]; type I collagen gel, representative experiment (FIG. 5A)
  cell number at four days: no change in cell number
p42/44 ERKs
  ERK phosphorylation: significantly enhanced
Primary rat hepatocytes [5]; H89 2 μM vs DMSO, collagen gel, [3H]thymidine incorporation 48-96 hr
  DNA synthesis on collagen gel: significantly increased
Primary rat hepatocytes [5]; H89 2 μM vs DMSO, film-plated cells, 48-96 hr
  DNA synthesis on collagen film: little effect
Primary rat hepatocytes [5]; collagen film, Example 6 discussion
  DNA synthesis in hepatocytes cultured on film: little effect
Primary rat hepatocytes [6]
  urea production: maintained
Primary rat hepatocytes [7]
  increase in cell number compared to DMSO controls: 67%
Primary rat hepatocytes [1]; collagen gel
  cell spreading on collagen gel: significant spreading

## protein kinase A (PKA)
[8]
  [^32P] incorporation in the in vitro PKA kinase assay: the protein kinase inhibitory peptide, PKI, specifically inhibits [^32P] incorporation

## N#CC(=C(/N)Sc1ccccc1N)/C(C#N)=C(\N)Sc1ccccc1N [U0126]
Primary rat hepatocytes [5]; inhibitor applied during early G1
  DNA synthesis, MEK1 inhibition during early G1: does not
Primary rat hepatocytes [5]; inhibitor applied during late G1
  DNA synthesis, MEK1 inhibition during late G1: inhibits DNA synthesis
